# Reference: ChEMBL document CHEMBL1201862, “PubChem BioAssay data set” (2004)
# Active and inactive are the calls of the source. For most assays here, no stated cut-off is given here; in the data, actives have a measured EC50 and inactives only a lower limit.
# What was measured:
# [1] = Luminescence Cell-Based Dose Response HTS to Identify Activators of Luciferase Translation or Activity in H4 […] Cells. [Related pubchem assays: 1829 (Project Summary), 1814 (Primary HTS)]; format: functional
# [2] = system: H4; test: Luminescence Cell-Based Dose Response HTS to Identify Activators of 5'UTR Stem-Loop Driven Prion Protein mRNA Translation in H4 Neuroglioblastoma Cells. [Related pubchem assays: 1829 (Project Summary), 1814 (Primary HTS)]; format: functional; settings: Homo sapiens
# [3] = Luminescence Cell-Based Dose Confirmation HTS to Identify Activators of 5'UTR Stem-Loop Driven Alpha-Synuclein mRNA Translation in H4 Neuroglioblastoma Cells. [Related pubchem assays: 1829 (Project Summary), 1814 (Primary HTS)]; format: functional
# [4] = target: T1, Zinc finger protein mex-5 (Caenorhabditis elegans, UniProt Q9XUB2); test: MEX-5/TCR-2 RNA interaction inhibitors, dose response, biochemical, C. elegans, fluorescence polarization (AID 1960)
# T1 sequence (Q9XUB2 whole entry): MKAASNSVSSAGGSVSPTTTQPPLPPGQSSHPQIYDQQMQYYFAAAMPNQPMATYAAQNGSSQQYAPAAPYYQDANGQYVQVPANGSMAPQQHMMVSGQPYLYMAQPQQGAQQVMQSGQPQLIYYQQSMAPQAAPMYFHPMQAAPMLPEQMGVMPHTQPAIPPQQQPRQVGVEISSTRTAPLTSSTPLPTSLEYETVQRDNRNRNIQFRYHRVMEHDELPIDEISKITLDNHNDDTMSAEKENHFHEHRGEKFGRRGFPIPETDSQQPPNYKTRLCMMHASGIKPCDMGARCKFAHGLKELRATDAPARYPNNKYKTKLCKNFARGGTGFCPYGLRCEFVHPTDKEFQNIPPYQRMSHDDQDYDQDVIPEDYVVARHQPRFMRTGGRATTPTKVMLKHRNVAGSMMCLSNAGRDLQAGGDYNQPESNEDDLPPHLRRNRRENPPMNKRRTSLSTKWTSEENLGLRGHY
# [5] = cytotoxicity toward NIH3T3 fibroblasts, dose response, counter-screen, cell-based, ATP luminescence, mouse fibroblasts (AID 2010); format: functional;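 further: cells exposed to compound for about 90 hours before reading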
# [6] = target: T2, RNA-binding protein pos-1 (Caenorhabditis elegans, UniProt G5EF15); test: inhibitors of POS-1/mex-3 RNA binding, dose response, biochemical, fluorescence polarization (AID 1964);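 further: purified POS-1 fused to maltose binding protein made in E. coli; potency of compounds blocking POS-1 binding to fluorescent RNA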
# T2 sequence (G5EF15 whole entry): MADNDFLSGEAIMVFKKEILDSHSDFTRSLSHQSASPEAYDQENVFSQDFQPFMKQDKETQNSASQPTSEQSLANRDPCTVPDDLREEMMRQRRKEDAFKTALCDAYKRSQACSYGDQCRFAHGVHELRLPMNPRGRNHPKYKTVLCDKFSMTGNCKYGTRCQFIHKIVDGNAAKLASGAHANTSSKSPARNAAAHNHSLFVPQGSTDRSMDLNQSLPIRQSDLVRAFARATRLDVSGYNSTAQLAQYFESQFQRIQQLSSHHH
# [7] = inhibitors of intracellular T. cruzi replication, confirmation, NIH3T3 host cells, beta-gal luminescence (AID 2044); format: functional, cell-based;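 further: intracellular parasites grown in NIH/3T3 mouse fibroblasts as host cells; luminescent beta-galactosidase reporter signal from transgenic T. cruzi replicating inside host cells; inhibitors lower the luminescence signal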
# [8] = target: T3, Replicative DNA helicase DnaB (Mycobacterium tuberculosis, UniProt P9WMR3); test: DnaB intein splicing inhibitors, dose response, biochemical, cell-free fluorescence (AID 449749); format: functional
# T3 sequence (P9WMR3 whole entry): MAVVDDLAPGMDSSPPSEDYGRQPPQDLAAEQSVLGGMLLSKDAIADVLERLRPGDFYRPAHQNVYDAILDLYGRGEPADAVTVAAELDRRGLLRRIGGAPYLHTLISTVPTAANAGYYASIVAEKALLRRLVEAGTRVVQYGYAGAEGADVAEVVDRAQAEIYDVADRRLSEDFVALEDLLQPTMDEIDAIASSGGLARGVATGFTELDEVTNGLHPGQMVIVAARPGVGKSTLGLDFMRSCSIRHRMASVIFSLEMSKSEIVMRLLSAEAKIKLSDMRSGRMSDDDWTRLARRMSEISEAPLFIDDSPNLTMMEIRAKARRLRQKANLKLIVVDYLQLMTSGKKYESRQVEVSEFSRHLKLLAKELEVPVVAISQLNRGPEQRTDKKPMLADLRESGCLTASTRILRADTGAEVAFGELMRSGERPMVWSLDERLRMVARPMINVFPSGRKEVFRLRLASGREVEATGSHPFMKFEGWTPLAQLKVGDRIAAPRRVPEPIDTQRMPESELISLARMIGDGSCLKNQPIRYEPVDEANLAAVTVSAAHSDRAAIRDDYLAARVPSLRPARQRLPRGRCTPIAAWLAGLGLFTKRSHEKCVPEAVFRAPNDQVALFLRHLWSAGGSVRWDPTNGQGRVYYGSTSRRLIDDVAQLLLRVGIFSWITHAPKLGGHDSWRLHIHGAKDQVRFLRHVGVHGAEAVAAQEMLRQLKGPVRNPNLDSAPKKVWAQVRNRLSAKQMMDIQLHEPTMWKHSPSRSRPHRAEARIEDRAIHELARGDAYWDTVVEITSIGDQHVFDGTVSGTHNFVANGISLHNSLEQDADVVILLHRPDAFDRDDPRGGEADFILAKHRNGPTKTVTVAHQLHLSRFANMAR
# [9] = target: T4, Protein RecA (Mycobacterium tuberculosis, UniProt P9WHJ3); test: Fluorescence Cell-Free Homogeneous Dose Retest to Identify Inhibitors of RecA-Intein Splicing Activity. [Related pubchem assays (depositor defined):AID2097, AID2223, AID489010, AID492950]; format: functional
# T4 sequence (P9WHJ3 whole entry): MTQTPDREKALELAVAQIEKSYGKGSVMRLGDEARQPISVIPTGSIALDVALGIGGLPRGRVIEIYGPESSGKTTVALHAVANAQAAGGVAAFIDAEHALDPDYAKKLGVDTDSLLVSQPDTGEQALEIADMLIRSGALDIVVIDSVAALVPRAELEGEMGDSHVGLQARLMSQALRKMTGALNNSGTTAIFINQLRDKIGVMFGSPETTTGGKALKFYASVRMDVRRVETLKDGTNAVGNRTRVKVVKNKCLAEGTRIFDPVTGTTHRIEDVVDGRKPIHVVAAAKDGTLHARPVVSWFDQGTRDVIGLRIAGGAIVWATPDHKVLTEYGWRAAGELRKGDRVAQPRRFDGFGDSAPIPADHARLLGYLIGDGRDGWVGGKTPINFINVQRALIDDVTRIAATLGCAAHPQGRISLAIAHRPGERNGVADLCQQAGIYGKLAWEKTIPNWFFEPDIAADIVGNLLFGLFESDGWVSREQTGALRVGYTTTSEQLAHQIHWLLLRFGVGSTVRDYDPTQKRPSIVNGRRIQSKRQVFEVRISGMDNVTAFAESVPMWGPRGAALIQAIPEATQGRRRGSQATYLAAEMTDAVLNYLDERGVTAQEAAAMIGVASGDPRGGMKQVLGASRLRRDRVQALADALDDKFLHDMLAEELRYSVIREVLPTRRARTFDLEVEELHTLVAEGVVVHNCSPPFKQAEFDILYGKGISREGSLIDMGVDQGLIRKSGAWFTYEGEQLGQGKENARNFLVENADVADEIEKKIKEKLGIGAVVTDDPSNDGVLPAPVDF
Compound,EC50 [1],EC50 [2],EC50 [3],EC50 [4],EC50 [5],EC50 [6],EC50 [7],AC50 [8],EC50 [9]
c1ccc(SCc2nc(-c3ccncc3)no2)cc1,25.8 µM (active),10.1 µM (active),14.8 µM (active),,,,,,
Cc1ccc(NC(=O)c2cn(-c3cccc(C)n3)cn2)cc1,0.269 µM (active),> 120 µM (not active),0.157 µM (active),,,,,,
CCN1CCc2c(sc(NC(=O)c3ccc4ccccc4c3)c2C(N)=O)C1,7.69 µM (active),> 60 µM (not active),36.5 µM (active),> 300 µM (inconclusive),16.8 µM (active),45.5 µM (active),2.47 µM (active),,
CCCOc1cccc(-c2nc3ccccc3c(=O)o2)c1,16.3 µM (active),,26.3 µM (active),,,,,9.46 µM (active),6.81 µM (active)
N#Cc1c(NC(=O)C2CC2)sc2c1CCCCC2,81.4 µM (active),> 120 µM (not active),34.7 µM (active),,,,,,
CCCc1ccc2oc(C(=O)NCCCN3CCOCC3)c(C)c2c1,30.8 µM (active),53.7 µM (active),18.7 µM (active),,,,,,
